pIC50: −log10 of the molar value.
Target: RIP2 recombinant protein (Homo sapiens, UniProt O43353)
Experiment: radiometric protein kinase assay (33PanQinase Activity Assay), in vitro peptide-based kinase assay
Type: biochemical
Conditions: for remaining activity at 0.1 µM / remaining activity at 1 µM: 1 h; for remaining activity at 0.1 µM: compound at 0.1 μM; for remaining activity at 1 µM: compound at 1 μM; for pIC50: ATP 3.0 μM, RIP2 15.7 nM, substrate RBER-Chktide
Protocol: The inhibition of RIP2 kinase was assessed using RIP2 recombinant protein in an in vitro peptide-based kinase assay.
A radiometric protein kinase assay (^33PanQinase® (^33PanQinase Activity Assay) is used for measuring the kinase activity. All assays are performed in 96-well FlashPlates™ from Perkin Elmer in a 50 μl reaction volume. The reaction cocktail is pipetted in 4 steps in the following order:
10 μl of non-radioactive ATP solution (in H2O)
25 μl of assay buffer/[γ-^33P]-ATP mixture
5 μl of test sample in 10% DMSO
10 μl of enzyme/substrate mixture
The assay for RIP2 contains 70 mM HEPES-NaOH pH 7.5, 3 mM MgCl2, 3 mM MnCl2, 3 μM Na-orthovanadate, 1.2 mM DTT, 50 μg/ml PEG20000, ATP (3.0 μM), [γ-^33P]-ATP (approx. 5×10^05 cpm per well), protein kinase RIP2 (15.7 nM) and substrate (RBER-Chktide), 2.0 μg/50 μl). The reaction cocktails were incubated at 30° C. for 60 minutes. The reaction was stopped with 50 μl of 2% (v/v) H3PO4, plates were aspirated and washed two times with 200 μl 0.9% (w/v) NaCl. Incorporation of ^33Pi (counting of “cpm”) was determined with a microplate scintillation counter.
The compounds are dissolved to 10 mM in DMSO. Where needed, solutions are sonicated in a bath sonicator.
Table 4 provides the pIC50 values and % Remaining activity values at two concentrations (1 μM and 0.1 μM) of the compounds according to the invention, obtained using the above mentioned kinase assay.

Sequence of RIP2 recombinant protein (O43353 whole entry): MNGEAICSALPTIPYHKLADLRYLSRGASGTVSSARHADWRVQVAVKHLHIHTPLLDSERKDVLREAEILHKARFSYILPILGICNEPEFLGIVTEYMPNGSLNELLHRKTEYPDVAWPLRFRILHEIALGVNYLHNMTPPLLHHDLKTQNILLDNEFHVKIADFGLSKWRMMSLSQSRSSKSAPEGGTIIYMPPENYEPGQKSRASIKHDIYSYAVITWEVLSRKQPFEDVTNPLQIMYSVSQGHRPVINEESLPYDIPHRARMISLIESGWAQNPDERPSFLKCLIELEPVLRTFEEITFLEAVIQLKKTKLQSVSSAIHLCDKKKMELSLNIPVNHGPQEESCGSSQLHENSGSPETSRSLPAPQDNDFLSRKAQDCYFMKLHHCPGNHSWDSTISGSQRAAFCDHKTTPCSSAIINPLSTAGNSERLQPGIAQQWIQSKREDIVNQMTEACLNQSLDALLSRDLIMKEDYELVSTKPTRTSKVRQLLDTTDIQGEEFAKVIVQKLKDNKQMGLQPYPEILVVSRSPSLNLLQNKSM

Row | SMILES | remaining activity at 0.1 µM [%] | remaining activity at 1 µM [%] | pIC50
1 | COCCC(=O)N1CCCN(C)c2cccc(c2)-c2cnn3ccc(nc23)NCC1 [Compound B19] | < 50 | < 50 | –
2 | NC(=O)c1ccc2cc1OCC(=O)NCCCNc1ccn3ncc-2c3n1 [Compound B21] | < 50 | < 50 | > 7.00
3 | O=C(CN1CCOCC1)N1CCNc2ccn3ncc(c3n2)-c2cccc(c2)OCC1 [Compound B36] | < 50 | < 50 | > 7.00
4 | CN(C)CCN1CCN(C(=O)C2CC2)CCOc2cccc(c2)-c2cnn3ccc1nc23 [Compound B48] | < 50 | < 50 | > 7.00
5 | O=C1CCNc2ccn3ncc(c3n2)-c2cc(F)cc(c2)OCCN1 [Compound B74] | < 50 | < 50 | 6.00 to 7.00
6 | CN1CCN(C(=O)C2CC2)CCNc2ccn3ncc(c3n2)-c2cccc(c2)C1 [Compound B76] | > 50 | < 50 | 6.00 to 7.00
7 | CCCCN1CCNc2ccn3ncc(c3n2)-c2cc(F)cc(c2)OCC1 [Compound F81] | < 50 | < 50 | > 7.00
8 | Fc1cc2cc(c1)-c1cnn3ccc(nc13)NCCN(C1CCOCC1)CCO2 [Compound F82] | < 50 | < 50 | > 7.00
9 | CCC(C)N1CCNc2ccn3ncc(c3n2)-c2cc(F)cc(c2)OCC1 (stereo not shown) [Compound F83] | < 50 | < 50 | > 7.00
10 | Fc1cc2cc(c1)-c1cnn3ccc(nc13)NCCN(C1CCC3(CC1)OCCO3)CCO2 [Compound F84] | < 50 | < 50 | 6.00 to 7.00
11 | COCCN1CCCNc2ccn3ncc(c3n2)-c2cc(F)cc(c2)OCC1 [Compound F86] | < 50 | < 50 | > 7.00
12 | COCCN1CCCOc2cc(F)cc(c2)-c2cnn3ccc(nc23)NCC1 [Compound F87] | < 50 | < 50 | > 7.00
13 | COCCN1CCCNc2ccn3ncc(c3n2)-c2cc(Cl)cc(c2)OCC1 [Compound F88] | < 50 | < 50 | > 7.00
14 | CC1(C)CCCC(N2CCNc3ccn4ncc(c4n3)-c3cc(F)cc(c3)OCC2)C1 (stereo not shown) [Compound F89] | < 50 | < 50 | 6.00 to 7.00
15 | NC(=O)c1cc2cc(c1)-c1cnn3ccc(nc13)NCCN(C1COC1)CCO2 [Compound F91] | < 50 | < 50 | > 7.00
16 | CCCCN1CCNc2ccn3ncc(c3n2)-c2cc(cc(C(N)=O)c2)OCC1 [Compound F92] | < 50 | < 50 | > 7.00
17 | CC1CNc2ccn3ncc(c3n2)-c2cccc(c2)OCC(=O)N1 (stereo not shown) [Compound F105] | > 50 | < 50 | 6.00 to 7.00
18 | O=C1COc2cncc(c2)-c2cnn3ccc(nc23)NCCCN1 [Compound F106] | – | – | 6.00 to 7.00
19 | CC1CNCCOc2cccc(c2)-c2cnn3ccc(nc23)N1 (stereo not shown) [Compound F108] | – | – | 6.00 to 7.00

From patent publication US20160024114A1, “MACROCYCLIC RIP2 KINASE INHIBITORS” (ONCODESIGN S.A, priority 2013, published 2016)
